Laboratory results published in publication PMC11053681, “Gold(I) and Silver(I) Complexes Containing Hybrid Sulfonamide/Thiourea Ligands as Potential Leishmanicidal Agents” (Pharmaceutics, 2024).
“And” between values parts separate entries of the source, which are not always exact repeats. Equal entries are not always repeated. “Also recorded” adds a separate entry of the source. Where two headings read alike, the source gives them in different places.

Experiments:
[1] = Cytotoxicity assay on Vero cells (resazurin); format: cell-based, African green monkey; conditions: African green monkey, Vero cells (ATCC CRL-1587), 24 h treatment
Method: (§1) For the experiment, Vero cells (ATCC CRL-1587) were used in Roswell Parl Memorial Institute (RPMI) medium with 10% fetal bovine serum (FBS) (RPMI 10%) and 20 μg/mL of Gentamicin. They were cultivated in culture bottles of […] and kept in an oven at 37 °C with 5% carbon dioxide (CO2). When picked or used on the day of the experiment, the cells were detached from the wall of the bottles with saline and 1X trypsin/EDTA. To find out how many cells there were in the bottle, it was diluted in Turkey liquid and then we proceeded with the counting in the Neubauer Chamber to calculate the desired concentrations. The Vero cells were plated at […] cells per well, in 96-well plates, and kept in an incubator with 5% CO2 at 37 °C for 24 h. Then, the compounds were added in triplicate, starting at a concentration of 500 µM, with serial dilution being performed up to a concentration of 3.9 µM [54]. The treatment was carried out for 24 h, and, after adding 5 µL of resazurin, the fluorescence was read using a spectrofluorometer (EnSpire Perkin-Elmer, Waltham, MA, USA).

[2] = Solubility in buffer for the fluorescence experiments; format: physicochemical; conditions: Tris-HCl buffer
Method: (§2) The compounds were solubilized in DMSO and then we made successive dilutions in a Tris-HCl 25 mmol L^−1 buffer, pH 8.0, containing 100 mmol L^−1 of NaCl. For all experiments, the final concentration of DMSO was kept constant and equal to 2.5%. Solutions with increasing concentrations of ligand and constant concentration of LbOYE (1 µmol L^−1) were prepared, which were kept at 25 °C for a period of 1h before acquisition of fluorescence emission spectra.
After the synthesis and structural characterization of the compounds, studies of interaction of the compounds and the recombinant LbOYE were carried out by fluorescence measurements.

Leishmania braziliensis = assay: Leishmanicidal activity against promastigotes (resazurin); format: cell-based; conditions: for IC50: promastigote form, 24 h treatment, resazurin, read-out: IC50 L. braziliensis; for SI L. braziliensis: selectivity index = CC50 (Vero) / IC50 (L. braziliensis promastigotes)
Method: (§3) The Leishmania infantum and Leishmania braziliensis strains were maintained in Schneider medium supplemented with 20% of SFB (Schneider 20%), cultivated in […] bottles and stored at 28 °C in a BOD oven. For the assays, parasites at the 5th day stationary growth phase were used.
(§4) The promastigotes metacyclic form of Leishmania infantum and Leishmania braziliensis were first filtered with an insulin syringe to break up rosettes and, then, were isolated from the culture in the stationary phase by centrifugation of 400× g for 4 min at a temperature of 4 °C [53]. The supernatant was subjected to a new centrifugation, heavier, of 2000× g for 30 min, also at 4 °C. The supernatant was discarded and the cell pallet formed from this centrifugation was resuspended in 10 mL of 10% Schneider medium. The process ensured the removal of cellular debris and dead parasites, as well as possible crystals from the culture medium, so that the quality of the experiment was guaranteed. Then, the promastigotes were diluted to 1:10 in paraformaldehyde (PFA) for counting in a Neubauer Chamber, with the concentrations adjusted for each experiment.
(§5) An amount of 1 × 10^7 parasites per well was used. The parasites were plated in 96-well plates. Then, the compounds were added in triplicate, starting at a concentration of 500 µM, with serial dilutions being performed up to a concentration of 3.9 µM [53]. The treatment was carried out for 24 h and, after adding 5 µL of resazurin, the fluorescence was read using a Enspire model spectrofluorometer (Perkin-Elmer, Waltham, MA, USA).

Leishmania infantum = assay: as above; format: cell-based; conditions: for IC50: promastigote form, 24 h treatment, resazurin, read-out: IC50 L. infantum; for SI L. infantum: selectivity index = CC50 (Vero) / IC50 (L. infantum promastigotes)
Method: as §3, §4, §5

LbOYE [3] = molecular target: T1, LbOYE (Leishmania braziliensis, UniProt A4H6Z3); assay: Suppression of intrinsic tryptophan fluorescence of LbOYE; format: binding; conditions: for Kd / Ksv *** (Stern–Volmer constant) / n ** (number of bonding sites): 25 °C; for Ksv *** (Stern–Volmer constant): Equation (3); for Affinity of LbOYE for the compound (fluorescence quenching), in words: Hill fit for Kd not possible for these ligands
From the text: The recombinant LbOYE protein was produced using the methodology previously described. Briefly, the protein was expressed in strains of bacterial Escherichia coli BL21(DE3) through induction by IPTG using the pET28a:LbOYE vector. The enzyme was purified through a chromatography step of capture by nickel affinity, as the pET28a vector allows the expression of a polyhistidine fusion peptide, located at the N-terminal end of the protein. After affinity purification, the polyhistidine tail was excised by “overnight” incubation with thrombin, and the second purification step was performed using size exclusion chromatography. Purification was evaluated by SDS-PAGE and protein concentration was estimated by spectrophotometry.
The emission spectra of the intrinsic fluorescence of the tryptophan were recorded using a Shimadzu F-4500 spectrofluorometer in the range of 310–420 nm, with opening of slits of excitation and emission at 5.0 nm and λex = 295 nm. Interaction analyzes between LbOYE and ligands were performed at λmax = 333 nm.
as §2
The results were obtained from the fluorescence emission spectra of the intrinsic tryptophan probe in the presence of the compounds HL1^Ch, HL3^FPh, HL5^NO2Ph, [Au(HL1^Ch)2]Cl and [Ag(HL3^FPh)2]NO3. The bonding parameters were determined by the Hill plot, obtaining the dissociation constant (Kd) through the non-linear adjustment of the saturation curve to the experimental data. The double-log plot was used to determine the bonding constant and the number of bonding sites (n). It also allows the calculation of the bonding constant (Kb) and Kd from 1/Kb.
Equation (1)—Hill’s equation:(1) F0−F/F0=[L]/L+Kd
Equation (2)—Double-log:(2) logF0−F/F0=nlogKb−nlog1/L−(F0−F)[P0]/F
Equation (3)—Equation of Stern–Volmer:(3) F0/F=1+KSV[L]
The study of fluorescence quenching can be affected when the ligand has absorption bands that coincide with excitation and emission wavelengths of fluorescence. This interference is called the internal filter effect, which can be minimized using the procedure described by Equation (4). Fobs and Fcor are the fluorescence intensities at 333 nm measured and corrected, respectively; l represents the optical step where the absorption and emission of light occurs and C0 is the concentration of the ligand.
For the correction of the internal filter effect, were used the molar absorptivity coefficient values in the excitation (295 nm) and emission (333 nm) lengths, [λ/ε (L mol^−1 cm^−1)]; HL1^Ch (εex = 373 and εem = 117), HL3^FPh (εex = 1191 and εem = 57), HL5^NO2Ph (εex = 6162 and εem = 9124), Au1 (εex = 7045 and εem = 4008) and Ag3 (εex = 9431 and εem = 3281).

L. braziliensis = tested on: L. braziliensis; set-up: method as in PMID 32830445; conditions: activity against L. braziliensis and cytotoxicity on macrophages; cited from earlier work
Vero cells = assay: Cytotoxicity assay on Vero cells (resazurin); format: cell-based, African green monkey; conditions: 24 h treatment
Method: as §1

LbOYE [4] = molecular target: T1, LbOYE; assay: LbOYE enzyme kinetics (NADPH decay at 340 nm); format: biochemical; conditions: 20 µmol L^−1 compound, 1 µmol L^−1 LbOYE, 100 µmol L^−1 NADPH; substrates NEM and O2
Method: The initial rates were obtained through the decay of the band at 340 nm referring to the maximum absorption of the NADPH (Nicotinamide Adenine Dinucleotide Phosphate) reducer, as previously reported. Solutions containing 1 µmol L^−1 of LbOYE, DMSO or 20 µmol L^−1 of the tested compounds from a stock solution at a concentration of 5 mmol L^−1 in DMSO were prepared in the presence and absence of the substrate N-Ethylmaleimide (NEM). These solutions were left for 30 min at room temperature. After 30 min, the NADPH reducer was added at a final concentration of 100 µmol L^−1.
Figure 7 Initial velocity (V0) for the reaction between 1 µmol L^−1 of LbOYE and 100 µmol L^−1 of NADPH in the presence of DMSO (control) or 20 µmol L^−1 of the compounds tested. Using (A) 100 µmol L^−1 of NEM in the presence of O2 and (B) absence of NEM in the presence of O2. Experiments carried out in phosphate buffer 25 mmol L^−1 pH 7.0, NaCl 100 mmol L^−1.

L. infantum = tested on: L. infantum; set-up: method as in PMID 21833767, PMID 22926569; conditions: conditions and methods vary; read-out: Antileishmanial activity of other compounds; cited from earlier work
[5] = tested on: RAW macrophages infected with Leishmania infantum; assay: Infectivity test / infection rate in RAW macrophages; format: cell-based; conditions: three concentrations (below IC50, IC50, above IC50), 24 h treatment
Method: For the infection of RAW macrophages adhered to the plates, we used parasites in the promastigote form of Leishmania infantum, in the stationary phase, in a ratio of 10:1 (promastigotes/macrophages).
Macrophages were plated in the amount of 5 × 10^4 cells per well, in 96-well plates, which were kept in a CO2 oven at 37 °C for 24 h. The parasites were plated at a concentration of 10:1. The plates were kept in a CO2 oven for 12 h until the parasites infected the cells. […] Plates were fixed with paraformol for further evaluation. Plaques were evaluated by counting parasites within 200 cells under the EVOS Cell Imaging System (Thermo Scientific, Waltham, MA, USA) microscope by staining with propidium iodide.
In view of the data obtained, the six most promising compounds (HL1^Ch, HL2^Ph, Ag3, Ag4, Ag6 and Au2) were selected for carrying out the infection rate test against the L. infantum parasite. […] This test was performed at four stages. The first step determined the percentage of the amount in 200 infected macrophages per parasite, the second determined the percentage of parasites that infects 100 cells/macrophages, the third determined the average percentage of parasites that infects 200 cells/macrophages and, finally, the fourth step indicated the infection rate, that is, the result of the amount of Leishmania per macrophage (obtained from the third step) multiplied by the percentage of infected macrophages. Figure 5 presents the graphs of the infection rates, while the other graphs can be found in Figure S7.4.

[6] = Hill plot (n = 1), Equation (1), Tris-HCl pH 8.0, 2.5% DMSO, read-out: Kd * (Hill plot)
[7] = double log, Equation (2), Kd = 1/Kb, read-out: Kd ** (double log) (converted)

T1 sequence (A4H6Z3 entry or part of it): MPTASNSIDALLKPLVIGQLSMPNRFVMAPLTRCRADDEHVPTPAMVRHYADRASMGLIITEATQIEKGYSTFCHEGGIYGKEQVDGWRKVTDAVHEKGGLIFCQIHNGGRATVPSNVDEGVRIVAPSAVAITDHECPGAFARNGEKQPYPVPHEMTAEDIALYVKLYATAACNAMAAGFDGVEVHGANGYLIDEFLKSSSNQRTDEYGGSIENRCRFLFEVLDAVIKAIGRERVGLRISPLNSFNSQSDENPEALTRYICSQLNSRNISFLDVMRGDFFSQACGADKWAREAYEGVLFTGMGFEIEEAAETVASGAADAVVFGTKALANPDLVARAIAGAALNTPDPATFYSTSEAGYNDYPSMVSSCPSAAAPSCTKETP

Compound | CC50 at 24 h [1] [µM] | Solubility in buffer at the concentrations for the fluorescence experiments, in words [2] | IC50 (Leishmania braziliensis; Leishmania braziliensis) [µM] | SI L. braziliensis (Leishmania braziliensis) | IC50 (Leishmania infantum; Leishmania infantum) [µM] | SI L. infantum (Leishmania infantum) | IC50 (L. infantum) [µM] | further results
Cc1ccc(S(=O)(=O)NNC(=S)Nc2ccc([N+](=O)[O-])cc2)cc1 [HL5^NO2Ph, N-(4-nitrophenyl)-2-tosylhydrazinocarbothioamide] | 26.6 | passed this stage | 19.02 ± 0.012 | 1.40 | 286.9 ± 0.075 | 0.09 |  | Kd (LbOYE [3]; [6]): 35 ± 2 µM; Ksv *** (Stern–Volmer constant) (LbOYE [3]): 6.5 ± 0.4 × 10^4; Kd (LbOYE [3]; [7]): 19 ± 1 µM; n ** (number of bonding sites) (LbOYE [3]; double log, Equation (2)): 1.5 ± 0.1
C[C@@H]1[C@H](O)[C@@H](C)/C=C/C=C/C=C/C=C/C=C/C=C/C=C/[C@H](O[C@@H]2O[C@H](C)[C@@H](O)[C@H](N)[C@@H]2O)C[C@@H]2O[C@](O)(C[C@@H](O)C[C@@H](O)[C@H](O)CC[C@@H](O)C[C@@H](O)CC(=O)O[C@H]1C)C[C@H](O)[C@H]2C(=O)O [amphotericin B] |  |  |  |  |  |  |  | SI (L. braziliensis): 6.8
Cc1ccc(S(=O)(=O)NNC(NC2CCCCC2)=[S][Au+][S]=C(NNS(=O)(=O)c2ccc(C)cc2)NC2CCCCC2)cc1.[Cl-] [Au1, [Au(HL1^Ch)2]Cl] |  | passed this stage |  | 0.26 |  | 0.19 |  | CC50 (Vero cells): 19.9 µM; Inhibition of LbOYE reaction (initial velocity V0), in words (LbOYE [4]): demonstrates capacity of inhibition, although less than the Ag3; IC50 (Leishmania braziliensis): 77.38 ± 0.018 µM; IC50 (Leishmania infantum): 105 ± 3.14 µM; Kd (LbOYE [3]; [6]): 110 ± 30 µM; Ksv *** (Stern–Volmer constant) (LbOYE [3]): 2.4 ± 0.2 × 10^4; Kd (LbOYE [3]; [7]): 39 ± 3 µM; n ** (number of bonding sites) (LbOYE [3]; double log, Equation (2)): 1.8 ± 0.1
CCP(CC)CC.[Au+].[Cl-] [[AuCl(PEt3)]] |  |  |  |  |  |  | 16.6 ± 1.03 | 
CC(=O)OC[C@H]1O[C@@H]([S-])[C@H](OC(C)=O)[C@@H](OC(C)=O)[C@@H]1OC(C)=O.CCP(CC)CC.[Au+] [auranofin] |  |  |  |  |  |  | 9.68 ± 1.02 | 
COc1cc(NC(C)CCCN)c2ncccc2c1 (centres unmarked) [primaquine] |  |  |  |  |  |  | 26.5 ± 1.2 | 
Cc1ccc(S(=O)(=O)NNC(=S)NC2CCCCC2)cc1 [HL1^Ch] | 293 | passed this stage | 128.9 ± 0.051 | 2.27 | 11 ± 0.306 | 26.6 and 26.64 |  | Infection rate of L. infantum in macrophages, in words [5]: considerably lowered the infection rate of the parasite even at a concentration below its IC50; Affinity of LbOYE for the compound (fluorescence quenching), in words (LbOYE [3]): lower affinity
Cc1ccc(S(=O)(=O)NNC(=S)Nc2ccccc2)cc1 [HL2^Ph] | 268 |  | 273.5 ± 0.018 | 0.98 | 48.39 ± 0.189 | 5.5 and 5.54 |  | Infection rate of L. infantum in macrophages, in words [5]: the infection index was not relevant for a concentration below its IC50
Cc1ccc(S(=O)(=O)NNC(=S)Nc2ccc(F)cc2)cc1 [HL3^FPh, N-(4-fluorophenyl)-2-tosylhydrazinocarbothioamide] | 292 | passed this stage | 204.5 ± 0.018 | 1.43 | 201.2 ± 0.052 | 1.450 |  | Affinity of LbOYE for the compound (fluorescence quenching), in words (LbOYE [3]): lower affinity; also recorded: low affinity
CCCCCCCCCCCCCCCCOP(=O)([O-])OCC[N+](C)(C)C [miltefosine] |  |  |  |  |  |  | 14.4 ± 1.1 | 
